Laboratory results reported in patent publication US11370763B2, “Compounds and compositions for treating conditions associated with NLRP activity” (Novartis AG, priority 2017, dated 2022).
pIC50: −log10 of the molar value.

System: IL-1β production in PMA-differentiated THP-1 cells
Test: IL-1β production in PMA-differentiated THP-1 cells stimulated with gramicidin (hTHP-1 assay containing 2% fetal bovine serum; Procedures 1-3)
Assay type: cell-based, human
Conditions: Homo sapiens, THP-1, hTHP-1 assay containing 2% fetal bovine serum; class symbols; read-out: hTHP-1 IC50 (Average IC50 of compounds in hTHP-1 assay)
Protocol: The following protocol is suitable for testing the activity of the compounds disclosed herein.
Procedure 1: IL-1β Production in PMA-Differentiated THP-1 Cells Stimulated with Gramicidin
THP-1 cells were purchased from the American Type Culture Collection and sub-cultured according to instructions from the supplier. Cells were cultured in complete RPMI 1640 (containing 10% heat inactivated FBS, penicillin (100 units/ml) and streptomycin (100 μg/ml)), and maintained in log phase prior to experimental setup. Prior to the experiment, compounds were dissolved in dimethyl sulfoxide (DMSO) to generate a 30 mM stock. The compound stock was first pre-diluted in DMSO to 3, 0.34, 0.042 and 0.0083 mM intermediate concentrations and subsequently spotted using Echo550 liquid handler into an empty 384-well assay plate to achieve desired final concentration (e.g. 100, 33, 11, 3.7, 1.2, 0.41, 0.14, 0.046, 0.015, 0.0051, 0.0017 μM). DMSO was backfilled in the plate to achieve a final DMSO assay concentration of 0.37%. The plate was then sealed and stored at room temperature until required.
THP-1 cells were treated with PMA (Phorbol 12-myristate 13-acetate) (20 ng/ml) for 16-18 hours. On the day of the experiment the media was removed and adherent cells were detached with trypsin for 5 minutes. Cells were then harvested, washed with complete RPMI 1640, spun down, and resuspended in RPMI 1640 (containing 2% heat inactivated FBS, penicillin (100 units/ml) and streptomycin (100 μg/ml). The cells were plated in the 384-well assay plate containing the spotted compounds at a density of 50,000 cells/well (final assay volume 50 μl). Cells were incubated with compounds for 1 hour and then stimulated with gramicidin (5 μM) (Enzo) for 2 hours. Plates were then centrifuged at 340 g for 5 min. Cell free supernatant (40 μL) was collected using a 96-channel PlateMaster (Gilson) and the production of IL-1β was evaluated by HTRF (cisbio). The plates were incubated for 18 h at 4° C. and read using the preset HTRF program (donor emission at 620 nm, acceptor emission at 668 nm) of the SpectraMax i3x spectrophotometer (Molecular Devices, software SoftMax 6). A vehicle only control and a dose titration of CRID3 (100-0.0017 μM) were run concurrently with each experiment.
Procedure 2: IL-1β Production in PMA-Differentiated THP-1 Cells Stimulated with Gramicidin
THP-1 cells were purchased from the American Type Culture Collection and sub-cultured according to instructions from the supplier. Prior to experiments, cells were cultured in complete RPMI 1640 (containing 10% heat inactivated FBS, penicillin (100 units/ml) and streptomycin (100 μg/ml)), and maintained in log phase prior to experimental setup. Prior to the experiment THP-1 were treated with PMA (Phorbol 12-myristate 13-acetate) (20 ng/ml) for 16-18 hours. Compounds were dissolved in dimethyl sulfoxide (DMSO) to generate a 30 mM stock. On the day of the experiment the media was removed and adherent cells were detached with trypsin for 5 minutes. Cells were then harvested, washed with complete RPMI 1640, spun down, resuspended in RPMI 1640 (containing 2% heat inactivated FBS, penicillin (100 units/ml) and streptomycin (100 μg/ml). The cells were plated in a 384-well plate at a density of 50,000 cells/well (final assay volume 50 μl). Compounds were first dissolved in assay medium to obtain a 5× top concentration of 500 μM. 10 step dilutions (1:3) were then undertaken in assay medium containing 1.67% DMSO. 5× compound solutions were added to the culture medium to achieve desired final concentration (e.g. 100, 33, 11, 3.7, 1.2, 0.41, 0.14, 0.046, 0.015, 0.0051, 0.0017 μM). Final DMSO concentration was at 0.37%. Cells were incubated with compounds for 1 hour and then stimulated with gramicidin (5 μM) (Enzo) for 2 hours. Plates were then centrifuged at 340 g for 5 min. Cell free supernatant (40 μL) was collected using a 96-channel PlateMaster (Gilson) and the production of IL-1β was evaluated by HTRF (cisbio). […]

First: CC(C)c1cc(C#N)cc(C(C)C)c1CC(=O)N=S(N)(=O)c1ccc(C(C)(C)O)cc1Cl (single isomer, unassigned) [Example 155, (R) or (S)-N-(amino(2-chloro-4-(2-hydroxypropan-2-yl)phenyl)(oxo)-λ^6-sulfaneylidene)-2-(4-cyano-2,6-diisopropylphenyl)acetamide]
Second: CC(C)c1cc2c(c(C(C)C)c1CC(=O)N=S(N)(=O)c1ccc(CN(C)C)cc1)COC2 (single isomer, unassigned) [Example 191, (R) or (S)-N-(amino(4-((dimethylamino)methyl)phenyl) (oxo)-λ^6-sulfaneylidene)-2-(4,6-diisopropyl-1,3-dihydroisobenzofuran-5-yl)acetamide]
The pIC50 of the first is higher: 6.00 to 6.70 for the first, 5.30 to 6.00 for the second. The first is the more potent here.

CC(C)c1cc(F)cc(C(C)C)c1C(C)C(=O)N=S(N)(=O)c1cnc(C(C)(C)O)s1 (single isomer, unassigned) [Example 194, (R, S) or (R, R)-N-(amino(2-(2-hydroxypropan-2-yl)thiazol-5-yl)(oxo)-λ^6-sulfaneylidene)-2-(4-fluoro-2,6-diisopropylphenyl) propanamide] and CC(C)(O)c1ncc(S(N)(=O)=NC(=O)Cc2c(C3CC3)cc(F)cc2C(F)(F)F)s1 (single isomer, unassigned) [Example 196, (R) or (S)-N-(amino(2-(2-hydroxypropan-2-yl)thiazol-5-yl)(oxo)-λ^6-sulfaneylidene)-2-(2-cyclopropyl-4-fluoro-6-(trifluoromethyl)phenyl) acetamide] fall in the same range of pIC50: 4.52 to 5.30 for the first, 4.52 to 5.30 for the second.

Same assay, conditions: Homo sapiens, THP-1, hTHP-1 assay containing 2% fetal bovine serum; given as numeric bound; read-out: hTHP-1 IC50 (Average IC50 of compounds in hTHP-1 assay)

CC(C)c1cc2c(c(C(C)C)c1CC(=O)N=S(N)(=O)c1ccc(CN(C)C)cc1)COC2 (single isomer, unassigned) [Example 192, (S) or (R)-N-(amino(4-((dimethylamino)methyl)phenyl) (oxo)-λ^6-sulfaneylidene)-2-(4,6-diisopropyl-1,3-dihydroisobenzofuran-5-yl)acetamide] and CC(C)c1cc(F)cc(C(C)C)c1C(C)C(=O)N=S(N)(=O)c1cnc(C(C)(C)O)s1 (single isomer, unassigned) [Example 195, (R, R) or (R, S)-N-(amino(2-(2-hydroxypropan-2-yl)thiazol-5-yl)(oxo)-λ^6-sulfaneylidene)-2-(4-fluoro-2,6-diisopropylphenyl) propanamide] cannot be ordered by pIC50: < 4.52 for the first, < 4.52 for the second.

For CC(C)(O)c1ncc(S(N)(=O)=NC(=O)Cc2c(C3CC3)cc(F)cc2C(F)(F)F)s1 (single isomer, unassigned) [Example 197, (S) or (R)-N-(amino(2-(2-hydroxypropan-2-yl)thiazol-5-yl)(oxo)-λ^6-sulfaneylidene)-2-(2-cyclopropyl-4-fluoro-6-(trifluoromethyl)phenyl) acetamide], the pIC50 was < 4.52.

Same assay, conditions: hTHP-1 assay containing 2% fetal bovine serum; class symbols; read-out: hTHP-1 IC50 (Average IC50 of compounds in hTHP-1 assay)

Compared with CC(C)c1cc(OC(F)F)cc(C(C)C)c1CC(=O)N=S(N)(=O)c1sc(C(C)(C)O)cc1F (single isomer, unassigned) [Example 76, (S)- or (R)-2-(4-(difluoromethoxy)-2,6-diisopropylphenyl)-N-(3-fluoro-5-(2-hydroxypropan-2-yl)thiophen-2-ylsulfonimidoyl)acetamide], CCc1cc(OC(F)F)cc(C(C)C)c1CC(=O)N=S(N)(=O)c1sc(C(C)(C)O)cc1F (single isomer, unassigned) [Example 78, (S)- or (R)-2-(4-(difluoromethoxy)-2-ethyl-6-isopropylphenyl)-N-(3-fluoro-5-(2-hydroxypropan-2-yl)thiophen-2-ylsulfonimidoyl)acetamide] is lower in pIC50: 6.70 to 7.40 for the first, 6.00 to 6.70 for the second. The first is the more potent here.

CC(C)c1cc(C#N)cc(C(C)C)c1CC(=O)N=S(N)(=O)c1ccc(C(C)(C)O)cc1Cl (single isomer, unassigned) [Example 156, (S) or (R)-N-(amino(2-chloro-4-(2-hydroxypropan-2-yl)phenyl)(oxo)-λ^6-sulfaneylidene)-2-(4-cyano-2,6-diisopropylphenyl)acetamide] and CC(C)c1cc(-c2ccc(Cl)c(Cl)c2)cc(C(C)C)c1CC(=O)N=S(N)(=O)c1ncc(C(C)(C)O)s1 (single isomer, unassigned) [Example 170, (R) or (S)-N-(amino(5-(2-hydroxypropan-2-yl)thiazol-2-yl)(oxo)-λ^6-sulfaneylidene)-2-(3′,4′-dichloro-3,5-diisopropyl-[1,1′-biphenyl]-4-yl)acetamide] fall in the same range of pIC50: 6.00 to 6.70 for the first, 6.00 to 6.70 for the second.

First: CC(C)c1ccc(F)c(C(C)C)c1CC(=O)N=S(N)(=O)c1cc(C(C)(C)O)cs1 (single isomer, unassigned) [Example 159, (R) or (S)-N-(amino(4-(2-hydroxypropan-2-yl)thiophen-2-yl)(oxo)-λ^6-sulfaneylidene)-2-(3-fluoro-2,6-diisopropylphenyl)acetamide]
Second: CC(C)c1ccc(F)c(C(C)C)c1CC(=O)N=S(N)(=O)c1ccc(C(C)(C)O)s1 (single isomer, unassigned) [Example 176, (R) or (S)-N-(amino(5-(2-hydroxypropan-2-yl)thiophen-2-yl)(oxo)-λ^6-sulfaneylidene)-2-(3-fluoro-2,6-diisopropylphenyl)acetamide]
The pIC50 of the first is higher: 6.70 to 7.40 for the first, 6.00 to 6.70 for the second. The first is the more potent here.

First: CC(C)c1cc(-c2ccc3c(c2)OC(F)(F)O3)cc(C(C)C)c1CC(=O)N=S(N)(=O)c1ncc(C(C)(C)O)s1 (single isomer, unassigned) [Example 166, (R) or (S)-N-(amino(5-(2-hydroxypropan-2-yl)thiazol-2-yl)(oxo)-λ^6-sulfaneylidene)-2-(4-(2,2-difuorobenzo[d][1,3]dioxol-5-yl)-2,6-diisopropylphenyl)acetamide]
Second: Cc1ccc(-c2cc(C(C)C)c(CC(=O)N=S(N)(=O)c3ncc(C(C)(C)O)s3)c(C(C)C)c2)cc1C (single isomer, unassigned) [Example 168, (R) or (S)-N-(amino(5-(2-hydroxypropan-2-yl)thiazol-2-yl)(oxo)-λ^6-sulfaneylidene)-2-(3,5-diisopropyl-3′,4′-dimethyl-[1,1′-biphenyl]-4-yl)acetamide]
The pIC50 of the first is higher: 6.70 to 7.40 for the first, 6.00 to 6.70 for the second. The first is the more potent here.

First: CC(C)c1cc(-c2ccc3c(c2)COCC3)cc(C(C)C)c1CC(=O)N=S(N)(=O)c1cnc(C(C)(C)O)s1 (single isomer, unassigned) [Example 171, (R) or (S)-N-(amino(2-(2-hydroxypropan-2-yl)thiazol-5-yl)(oxo)-λ^6-sulfaneylidene)-2-(4-(isochroman-7-yl)-2,6-diisopropylphenyl)acetamide]
Second: COCc1cc(C(C)C)c(CC(=O)N=S(N)(=O)c2ncc(C(C)(C)O)s2)c(C(C)C)c1 (single isomer, unassigned) [Example 185, (R) or (S)-N-(amino(5-(2-hydroxypropan-2-yl)thiazol-2-yl)(oxo)-λ^6-sulfaneylidene)-2-(2,6-diisopropyl-4-(methoxymethyl)phenyl) acetamide]
The pIC50 of the first is lower: 6.00 to 6.70 for the first, 6.70 to 7.40 for the second. The second is the more potent here.

CC(C)c1ccc(C#N)c(C(C)C)c1CC(=O)N=S(N)(=O)c1nc(C(C)(C)O)cs1 (single isomer, unassigned) [Example 179, (R) or (S)-N-(amino(4-(2-hydroxypropan-2-yl)thiazol-2-yl)(oxo)-λ^6-sulfaneylidene)-2-(3-cyano-2,6-diisopropylphenyl)acetamide] gave a pIC50 of 6.00 to 6.70.
